In US20140066362A1, “METHOD FOR TREATING INFECTIONS BY TARGETING MICROBIAL H2S-PRODUCING ENZYMES” (NEW YORK UNIVERSITY, priority 2011, published 2014):
Where two headings read alike, the source gives them in different places.

Test system: E. coli ΔsseA (3MST-deficient) strain
Type: cell-based
[1] = Table 1, relative values of growth inhibition (negative numbers), ΔsseA vs wt E. coli

Row | Compound | ΔsseA inhibition of growth [1] | ΔsseA inhibition of growth
1 | CO[C@H]1C[C@H](O[C@H]2[C@H](C)[C@@H](O[C@@H]3O[C@H](C)C[C@H](N(C)C)[C@H]3O)[C@@H](C)C[C@@]3(CO3)C(=O)[C@H](C)[C@@H](O)[C@@H](C)[C@@H](C)OC(=O)[C@@H]2C)O[C@@H](C)[C@@H]1O [Oleandomycin] | −498 | –
2 | O=S(=O)(F)Cc1ccccc1 [Phenyl-methylsulfonyl-fluoride (PMSF), Phenyl-methylsulfonyl-fluoride] | −194 | –
3 | CC(=O)O[C@H]1C[C@@]2(C)[C@@H](C[C@@H](O)[C@H]3[C@@]4(C)CC[C@@H](O)[C@@H](C)[C@@H]4CC[C@@]32C)/C1=C(\CCC=C(C)C)C(=O)O [Fusidic acid] | −271 | –
4 | NO [Hydroxylamine] | −150 | –
5 | CC(=O)OCC1=C(C(=O)O)N2C(=O)[C@@H](NC(=O)Cc3cccs3)[C@H]2SC1 [Cephalothin] | −160 | –
6 | CO[C@H]1C[C@H](O[C@H]2[C@H](C)[C@@H](O[C@@H]3O[C@H](C)C[C@H](N(C)C)[C@H]3OC(C)=O)[C@@H](C)C[C@@]3(CO3)C(=O)[C@H](C)[C@@H](OC(C)=O)[C@@H](C)[C@@H](C)OC(=O)[C@@H]2C)O[C@@H](C)[C@@H]1OC(C)=O [Troleandomycin] | −203 | –
7 | Cn1c(=O)c2c(ncn2C)n(C)c1=O [Caffeine] | −173 | –
8 | CSc1ccc2c(c1)N(CCC1CCCCN1C)c1ccccc1S2 (stereo not shown) [Thioridazine] | −313 | –
9 | NC(=O)c1cc[n+](CC2=C(C(=O)O)N3C(=O)[C@@H](NC(=O)[C@@H](c4ccccc4)S(=O)(=O)[O-])[C@H]3SC2)cc1 [Cefsulodin] | −201 | –
10 | CC1(C)S[C@@H]2[C@H](NC(=O)Cc3ccccc3)C(=O)N2[C@H]1C(=O)O [Penicillin G] | −186 | –
11 | Cc1onc(-c2ccccc2Cl)c1C(=O)N[C@@H]1C(=O)N2[C@@H]1SC(C)(C)[C@@H]2C(=O)O [Cloxacillin] | −182 | –
12 | CO[C@@H]1[C@@H](OC(N)=O)[C@@H](O)[C@H](Oc2ccc3c(O)c(NC(=O)c4ccc(O)c(CC=C(C)C)c4)c(=O)oc3c2C)OC1(C)C [Novobiocin] | −265 | –
13 | O=C1C2CC=CCC2C(=O)N1SC(Cl)(Cl)Cl (stereo not shown) [Captan] | −357 | –
14 | CCn1cc(C(=O)O)c(=O)c2ccc(C)nc21 [Nalidixic acid] | −183 | –
15 | CCN(CC)C(=S)SSC(=S)N(CC)CC [Disulfiram] | −246 | –
16 | NC(CO)C(=O)NNCc1ccc(O)c(O)c1O (stereo not shown) [Benserazide] | −336 | –
17 | CCCCC(CC)CNC(=N)NC(=N)NCCCCCCNC(=N)NC(=N)NCC(CC)CCCC (stereo not shown) [Alexidine] | −216 | –
18 | Cn1cnc([N+](=O)[O-])c1Sc1ncnc2nc[nH]c12 [Azathioprine] | −341 | –
19 | CN(C)c1ccc(C(=C2C=CC(=[N+](C)C)C=C2)c2ccc(N(C)C)cc2)cc1 [Crystal Violet] | −576 | –
20 | Cc1ncc([N+](=O)[O-])n1CC(O)CCl (stereo not shown) [Ornidazole] | −203 | –
21 | N[C@H](CO)C(=O)O [D-Serine] | −398 | –
22 | N#CC(C#N)=NNc1cccc(Cl)c1 [CCCP] | −422 | –
23 | OC(CCN1CCCCC1)(c1ccccc1)c1ccccc1 [Pridinol] | −206 | –
24 | O=P(O)(O)O [200 mM Sodium Phosphate pH 7, Sodium Phosphate] | – | −497
25 | Polymyxin B | −231 | –
26 | O=C1C=C(O)C(=O)c2ccccc21 [Lawsone] | −330 | –

Row | Compound | ΔsseA inhibition of growth [1] | ΔsseA inhibition of growth
27 | Poly-L-lysine | −377 | –
28 | COc1cc(Cc2cnc(N)nc2N)cc(OC)c1OC [Trimethoprim] | −212 | –
29 | N#CC(C#N)=NNc1ccc(OC(F)(F)F)cc1 [FCCP] | – | −460
30 | CCCCCCCCCCCC[N+](C)(C)C.[Br-] [Dodecyltrimethyl ammonium bromide] | −225 | –
31 | Nc1ccc2cc3ccc(N)cc3nc2c1 [Proflavine] | −93 | –
32 | Spiramycin | −235 | –
33 | CO[C@H]1/C=C/O[C@@]2(C)Oc3c(C)c([O-])c4c(O)c(cc(O)c4c3C2=O)NC(=O)/C(C)=C\C=C\[C@H](C)[C@H](O)[C@@H](C)[C@@H](O)[C@@H](C)[C@H](OC(C)=O)[C@@H]1C.[Na+] [Rifamycin SV] | −352 | –
34 | CN[C@@H]1[C@@H](O[C@H]2O[C@H](CO)[C@@H](N)[C@H](O)[C@H]2O)OC2C[C@@H](N)[C@@H](O[C@H]3[C@H](O)[C@@H](O)[C@H](N)C[C@@H]3N)OC2[C@@H]1O (stereo partly shown) [Apramycin] | −179 | –
35 | O=[N+]([O-])c1ccc(O)c([N+](=O)[O-])c1 [2,4-Dinitrophenol] | −296 | –
36 | c1ccc(-c2nn(-c3ccccc3)[n+](-c3cccc4ccccc34)n2)cc1 [Tetrazolium violet] | −293 | –
37 | CC1(C)S[C@@H]2[C@H](NC(=O)C(C(=O)O)c3ccccc3)C(=O)N2[C@H]1C(=O)O (stereo partly shown) [Carbenicillin] | −164 | –
38 | O=c1ccc2ccccc2o1 [Coumarin] | −243 | –
39 | O=C(O)CCCc1ccc(N(CCCl)CCCl)cc1 [Chlorambucil] | −177 | –
40 | Oc1c(Cl)c(Cl)c(Cl)c(Cl)c1Cl [Pentachlorophenol] | −287 | –
41 | O=[N+]([O-])c1ccc(-n2nc(-c3ccccc3)n[n+]2-c2ccc(I)cc2)cc1.[Cl-] [Iodonitro tetrazolium violet] | −215 | –
42 | CO[C@@H]1[C@@H](O[C@@H]2O[C@H](C)[C@@H](O[C@H]3C[C@@](C)(O)[C@@H](OC(=O)CC(C)C)[C@H](C)O3)[C@H](N(C)C)[C@H]2O)[C@@H](CC=O)C[C@@H](C)[C@@H](O)/C=C/C=C/C[C@@H](C)OC(=O)C[C@H]1OC(C)=O [Josamycin] | −294 | –
43 | CCCCCCCCCCCC[N+](C)(C)CCOc1ccccc1 [Domiphen bromide] | −250 | –
44 | O=C1OC(CN2CCOCC2)CN1/N=C/c1ccc([N+](=O)[O-])o1 (stereo not shown) [Furaltadone] | −162 | –
45 | CC[C@H]1OC(=O)C[C@@H](O)[C@H](C)[C@@H](O[C@@H]2O[C@H](C)[C@@H](O[C@H]3C[C@@](C)(O)[C@@H](O)[C@H](C)O3)[C@H](N(C)C)[C@H]2O)[C@@H](CC=O)C[C@@H](C)C(=O)/C=C/C(C)=C/[C@@H]1CO[C@@H]1O[C@H](C)[C@@H](O)[C@@H](OC)[C@H]1OC [Tylosin] | −520 | –
46 | CCN(CC)CC(=O)Nc1c(C)cccc1C [Lidocaine] | −269 | –
47 | O=[N+]([O-])c1ccc(Cl)c([N+](=O)[O-])c1 [1-Chloro-2,4-dinitrobenzene] | −221 | –
48 | N.N.N.N.N.N.N.N.N.N.N.N.N.N.[Cl-].[Cl-].[Cl-].[Cl-].[Cl-].[Cl-].[O-2].[O-2].[Ru+3].[Ru+3].[Ru+4] [Ruthenium red] | −268 | –
49 | CN(C)CCC=C1c2ccccc2CCc2ccccc21 [Amitriptyline] | −422 | –
50 | CCn1cc(C(=O)O)c(=O)c2cc3c(cc21)OCO3 [Oxolinic acid] | −117 | –
51 | Nc1ccn([C@@H]2O[C@H](CO)[C@@H](O)[C@@H]2O)c(=O)n1 [Cytosine arabinoside] | −281 | –
52 | CC(CN1c2ccccc2Sc2ccccc21)N(C)C (stereo not shown) [Promethazine] | −262 | –
